Test results from PMC10477861, “Efficient Mining of Anticancer Peptides from Gut Metagenome” (Advanced Science, 2023).

Experiments:
Conditions in all cases: 25 µM pACP, 24 h, maintenance medium 1% FBS, ratio of viability to vehicle (PBS), at least three technical repetitions
HT29 = test: MTT primary screening of anticancer activity, HT29; format: cell-based, Human
Procedure, shortened: (§1)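 Cultures grown to 60% confluence; complete medium replaced by 1% FBS maintenance medium; peptide added at 25 µM final; incubated 24 h; viability assessed by MTT.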

Caco2 = test: MTT primary screening of anticancer activity, Caco2; format: cell-based, Human
Procedure, shortened: as §1

HCT116 = test: MTT primary screening of anticancer activity, HCT116; format: cell-based, Human
Procedure, shortened: as §1

CT26 = test: MTT primary screening of anticancer activity, CT26; format: cell-based, Murine
Procedure, shortened: as §1

MDA-MB-231 = test: MTT primary screening of anticancer activity, MDA-MB-231; format: cell-based
Procedure, shortened: as §1

MDA-MB-436 = test: MTT primary screening of anticancer activity, MDA-MB-436; format: cell-based
Procedure, shortened: as §1

MDA-MB-453 = test: MTT primary screening of anticancer activity, MDA-MB-453; format: cell-based
Procedure, shortened: as §1

MDA-MB-468 = test: MTT primary screening of anticancer activity, MDA-MB-468; format: cell-based
Procedure, shortened: as §1

SK-BR-3 = test: MTT primary screening of anticancer activity, SK-BR-3; format: cell-based
Procedure, shortened: as §1

BT474 = test: MTT primary screening of anticancer activity, BT474; format: cell-based
Procedure, shortened: as §1

T47D = test: MTT primary screening of anticancer activity, T47D; format: cell-based
Procedure, shortened: as §1

EFM192A = test: MTT primary screening of anticancer activity, EFM192A; format: cell-based
Procedure, shortened: as §1

B16 = test: MTT primary screening of anticancer activity, B16; format: cell-based, Mouse
Procedure, shortened: as §1

MCF7 = test: MTT primary screening of anticancer activity, MCF7; format: cell-based
Procedure, shortened: as §1

Hela = test: MTT primary screening of anticancer activity, Hela; format: cell-based, Human
Procedure, shortened: as §1

LCC = test: MTT primary screening of anticancer activity, LCC; format: cell-based
Procedure, shortened: as §1

Measured: Survival rate of cancer cells in primary screening

RVYKFVDMIGEIGHGRENHIGSGFDERLCRNGACVDCYGKYLCCRTGDYP [pACP1836]
0.77: HT29
0.79: HCT116
0.70: MDA-MB-468
1.00: all other assays above

SCRNGKGISSGDRPGKAKTGISLEIGKCSYRNKGKSAENSSVAVV [pACP1869]
0.68: T47D
0.79: B16
1.00: all other assays above

SPLKGGGLLPPAGFCPRRVLCRLPTGWKKGKPSGQMPLFRIWRKVMVMK [pACP1985]
0.79: B16
0.07: EFM192A
0.24: SK-BR-3
0.05: BT474
0.15: T47D
0.19: MCF7
0.08: MDA-MB-453
0.10: MDA-MB-231
0.0378: MDA-MB-436
0.31: MDA-MB-468
0.0132: Hela
0.77: CT26
1.00: all other assays above

SVGKRCKMGKNYKTVPALKGIPLAGGTYNTRNRSGSG [pACP2037]
0.78: B16
0.74: T47D
1.00: all other assays above

VAHGLDLLDGVVAEGVAAKGDDNTIGLAKRLRHCWNPFCKRPTTH [pACP2160]
0.80: B16
0.70: MDA-MB-468
0.79: T47D
1.00: all other assays above

YCIFFLDKGFPGILADFLCLAGKRTIKLKALKQLIRQQVY [pACP2286]
0.77: B16
0.76: MCF7
0.72: BT474
0.63: T47D
1.00: all other assays above

YRKCDTAGGLSKLCVAEKDIKIIWKYGGR [pACP2334]
0.76: B16
0.78: T47D
1.00: all other assays above

YSYGYVISSCKKAGGGYAIRYVALHYVQGTKEGGGRQ [pACP2344]
0.68: BT474
0.76: B16
1.00: all other assays above
